In the supplement of paper PMC6045584:
± gives the standard deviation of the averaged measurements.

Experiments:
[1] = compound: CCN(CC)CCNC(=O)c1c(C)[nH]c(/C=C2\C(=O)Nc3ccc(F)cc32)c1C [SUNITINIB]; assay: surviving fraction relative to DMSO-only wells; higher = less growth inhibition; details: exposure time: 5 days
Summary of the method: (§1)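 A line counted only if its three screens reached replicate Pearson r >0.7 and median Z' >0.3. Tumour cells in log phase were seeded at 250–500 per well in 384-well plates and, after 24 hours, kept in continuous contact with inhibitors at 0.5, 1, 5, 10, 50, 100, 500 and 1000 nM for five days. Surviving fraction was taken from CellTiter-Glo luminescence relative to the median of DMSO-only wells.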

[2] = compound: COc1cc([C@@H]2c3cc4c(cc3[C@@H](O[C@@H]3O[C@@H]5CO[C@@H](C)O[C@H]5[C@H](O)[C@H]3O)[C@H]3COC(=O)[C@H]23)OCO4)cc(OC)c1O [ETOPOSIDE]; assay: as above; details: exposure time: 5 days
Summary of the method: as §1

Test System	surviving fraction ([1]; 0.5 nM)	surviving fraction ([1]; 1 nM)	surviving fraction ([1]; 5 nM)	surviving fraction ([1]; 10 nM)	surviving fraction ([1]; 50 nM)	surviving fraction ([1]; 100 nM)	surviving fraction ([1]; 500 nM)	surviving fraction ([1]; 1000 nM)	surviving fraction ([2]; 0.5 nM)	surviving fraction ([2]; 1 nM)	surviving fraction ([2]; 5 nM)	surviving fraction ([2]; 10 nM)	surviving fraction ([2]; 50 nM)	surviving fraction ([2]; 100 nM)	surviving fraction ([2]; 500 nM)	surviving fraction ([2]; 1000 nM)
HCC1954 BREAST	0.363 ± 0.098	0.365 ± 0.15	0.38 ± 0.16	0.434 ± 0.2	0.5 ± 0.045	0.555 ± 0.052	0.616 ± 0.092	0.65 ± 0.0088	0.889 ± 0.22	0.872 ± 0.095	1.1 ± 0.064	1.05 ± 0.074	0.953 ± 0.054	0.654 ± 0.014	0.512 ± 0.13	0.34 ± 0.0014
HCT15 LARGE INTESTINE	0.882 ± 0.015	0.73 ± 0.028	0.816 ± 0.034	0.449 ± 0.021	0.952 ± 0.049		0.855 ± 0.08	0.119 ± 0.015	1.01 ± 0.037	0.981 ± 0.03	1.01 ± 0.041	1.04 ± 0.046	1.007 ± 0.0047	1.05 ± 0.033	0.704 ± 0.095	0.328 ± 0.037
HELA CERVIX	0.906 ± 0.047	0.892 ± 0.046		0.853 ± 0.069	0.995 ± 0.044	0.948 ± 0.052	1.03 ± 0.035	0.745 ± 0.05	1.1 ± 0.033	1.1 ± 0.023	1.04 ± 0.031	1.04 ± 0.015	1.14 ± 0.063	1.18 ± 0.059	0.301 ± 0.044	0.182 ± 0.0037
HMLE3 BREAST	0.887 ± 0.037	0.715 ± 0.058	0.816 ± 0.019	0.241 ± 0.053	0.867 ± 0.064	0.832 ± 0.061	0.498 ± 0.018	0.108 ± 0.0078	1.02 ± 0.052	0.974 ± 0.06	1.01 ± 0.027	0.9737 ± 0.0075	0.826 ± 0.018	0.589 ± 0.06	0.279 ± 0.045	0.27 ± 0.017
HMT3552 BREAST		0.96				1.21	0.423	0.203	1.05	1.05	1.04	0.998	1.14	1.03	0.347	0.22
HOS BONE	0.921 ± 0.015	0.937 ± 0.025	0.8943 ± 0.0061	0.884 ± 0.021	0.954 ± 0.01	0.9297 ± 0.009	0.786 ± 0.017	0.471 ± 0.0095	1.01 ± 0.011	1.02 ± 0.033	1.02 ± 0.018	1.019 ± 0.0095	0.978 ± 0.01	0.707 ± 0.033	0.0687 ± 0.0011	0.067 ± 0.0056
HOSMNG BONE	0.939 ± 0.1		0.969 ± 0.13		1.06 ± 0.12	0.999 ± 0.18	0.803 ± 0.072	0.44 ± 0.037	0.958 ± 0.1	0.984 ± 0.056	0.976 ± 0.024	1.01 ± 0.023	1.02 ± 0.021	1.04 ± 0.018	0.956 ± 0.079	0.78 ± 0.021
HS57T BREAST	0.9 ± 0.077	0.867 ± 0.027		0.919 ± 0.095		0.863 ± 0.011	0.572 ± 0.035	0.406 ± 0.027	1.02 ± 0.016	0.967 ± 0.049	1.01 ± 0.02	1.06 ± 0.069	1.09 ± 0.055	0.909 ± 0.06	0.409 ± 0.048	0.288 ± 0.017
HS578T BREAST	0.838 ± 0.15	0.824 ± 0.057		0.881 ± 0.049			0.871 ± 0.073	0.426 ± 0.054	0.878 ± 0.18	0.849 ± 0.12	0.831 ± 0.2	0.789 ± 0.079	0.95 ± 0.11	0.751 ± 0.064	0.59 ± 0.064	0.372 ± 0.029
HSSYII SYNOVIAL	0.771 ± 0.076	0.694 ± 0.029	0.755 ± 0.012	0.216 ± 0.01		0.765 ± 0.045	0.418 ± 0.02	0.114 ± 0.0013	0.995 ± 0.045	0.972 ± 0.068	0.968 ± 0.049	0.971 ± 0.018	0.7943 ± 0.0045	0.59 ± 0.026	0.116 ± 0.0062	0.0892 ± 0.0041
HT1080 SOFT TISSUE	0.9787 ± 0.0091		0.997 ± 0.021	0.97 ± 0.07		1.1 ± 0.031	0.766 ± 0.032	0.559 ± 0.032	1.02 ± 0.028	0.995 ± 0.026	0.951 ± 0.02	0.94 ± 0.015	0.616 ± 0.046	0.467 ± 0.0051	0.217 ± 0.021	0.222 ± 0.0056
HU09 BONE	0.865 ± 0.14		0.768 ± 0.076	0.637 ± 0.048	0.498 ± 0.051	0.485 ± 0.073	0.288 ± 0.035	0.161 ± 0.011	0.957 ± 0.075	0.977 ± 0.09	1.12 ± 0.099	1 ± 0.023	0.972 ± 0.12	0.803 ± 0.087	0.146 ± 0.0087	0.0523 ± 0.0064
JIMT1 BREAST	0.826 ± 0.025	0.81 ± 0.07	0.841 ± 0.041	0.848 ± 0.069	1.05 ± 0.056	1.04 ± 0.075	0.776 ± 0.098	0.54 ± 0.063	0.988 ± 0.02	1.01 ± 0.026	1.03 ± 0.032	1.03 ± 0.015	1.06 ± 0.022	1.07 ± 0.026	0.893 ± 0.028	0.694 ± 0.028
JURKAT HAEMATOPOIETIC AND LYMPHOID TISSUE	1.03 ± 0.023	1 ± 0.015	1.009 ± 0.0064	1.01 ± 0.025	1.01 ± 0.026	1.04 ± 0.012	0.677 ± 0.012	0.0883 ± 0.0087	1.084 ± 0.0084	1.1 ± 0.023	1.052 ± 0.0055	1.011 ± 0.0045	0.633 ± 0.043	0.261 ± 0.01	0.064 ± 0.005	0.0413 ± 0.00058
KPD BONE	0.898 ± 0.04	0.875 ± 0.031	0.928 ± 0.042		0.9567 ± 0.007	0.972 ± 0.022	0.73 ± 0.031	0.441 ± 0.046	0.955 ± 0.016	0.894 ± 0.047	1.02 ± 0.026	1.02 ± 0.1	0.944 ± 0.023	0.811 ± 0.047	0.393 ± 0.0087	0.292 ± 0.014
LM7 BONE	0.786 ± 0.068	0.767 ± 0.028	0.81 ± 0.087	0.731 ± 0.05	0.93 ± 0.039	0.794 ± 0.016	0.342 ± 0.009	0.177 ± 0.018	0.9 ± 0.14	0.941 ± 0.072	1.01 ± 0.068	1.01 ± 0.13	0.994 ± 0.12	0.953 ± 0.075	0.677 ± 0.034	0.449 ± 0.045
MCF7 BREAST	0.786 ± 0.02	0.822 ± 0.023	0.8113 ± 0.0079	0.706 ± 0.0095		0.842 ± 0.015	0.751 ± 0.012	0.607 ± 0.015	0.9 ± 0.049	0.88 ± 0.045	0.867 ± 0.079	0.9 ± 0.037	0.951 ± 0.07	0.935 ± 0.014	0.702 ± 0.051	0.644 ± 0.041
MDAMB134 BREAST	0.675 ± 0.021	0.777 ± 0.087	0.715 ± 0.14	0.675 ± 0.022	0.887 ± 0.067		1.05 ± 0.22		1.08 ± 0.13	1.187 ± 0.0057	0.994 ± 0.13	0.992 ± 0.099	1.03 ± 0.19	1.12 ± 0.17	1.11 ± 0.065	1.02 ± 0.055
MDAMB157 BREAST	0.794 ± 0.024	0.802 ± 0.08	0.87 ± 0.07	0.869 ± 0.12	0.83 ± 0.032	0.74 ± 0.072	0.613 ± 0.064	0.404 ± 0.062	0.927 ± 0.12	0.938 ± 0.044	1.07 ± 0.044	0.99 ± 0.055	0.895 ± 0.038	0.874 ± 0.1	0.201 ± 0.046	0.221 ± 0.053
MDAMB231 BREAST	0.955 ± 0.016	0.9679 ± 0.0028	0.979 ± 0.012	0.976 ± 0.033	1.09 ± 0.017	1.12 ± 0.017	1.04 ± 0.0064	0.848 ± 0.011	0.987 ± 0.022	1.03 ± 0.056	1.02 ± 0.018	0.995 ± 0.018	1.04 ± 0.029	1.03 ± 0.036	0.633 ± 0.017	0.454 ± 0.043
MDAMB361 BREAST	0.683 ± 0.049	0.717 ± 0.023	0.696 ± 0.058	0.651 ± 0.025	0.82 ± 0.069		0.8 ± 0.011	0.527 ± 0.054	0.921 ± 0.048	0.848 ± 0.056	0.884 ± 0.055	0.946 ± 0.068	0.958 ± 0.067	0.963 ± 0.091	0.954 ± 0.051	0.972 ± 0.049
MDAMB436 BREAST	0.761 ± 0.07	0.78 ± 0.046	0.79 ± 0.011	0.79 ± 0.099	0.85 ± 0.087	0.913 ± 0.071	0.718 ± 0.061	0.596 ± 0.023	0.957 ± 0.038	1 ± 0.053	1.05 ± 0.079	0.943 ± 0.022	0.873 ± 0.11	0.822 ± 0.045	0.499 ± 0.02	0.416 ± 0.059
